Where a name gives a salt, the structure may show the parent alone. Each block holds one molecule with its values, some of them ahead of it.
Assays:
Format in all cases: physicochemical
[1] = Inventors' studies of the known crystalline forms of vortioxetine hydrobromide of WO2007/144005A1
From the text: In studies, the inventors of the present invention found out that the multiple crystalline forms of vortioxetine hydrobromide disclosed in WO2007/144005A1 have the following disadvantages: […]

[2] = Hygroscopicity comparison (DVS isothermal sorption); conditions: relative humidity range 20%-80%
Description: Dynamic vapor sorption (DVS) data were collected using TA Instruments Q5000 TGA. The instrument control software was Thermal Advantage, and the analytical software was Universal Analysis. Usually, 1-10 mg of the sample was placed in a platinum pan and the weight change of the sample during experiments was recorded. The relative humidity was usually programmed to change from 20% to 80% and then back to 20%, and an isothermal sorption curve could be generated. Depending on specific situations, different sorption and desorption procedures might be used.
Hygroscopicity comparison: DVS isothermal sorption curves were used, and weight changes within the 20%-80% RH range were measured.

[3] = Stability competition test (competitive slurry, XRPD); conditions: for Stability Competition Test: crystalline form after competitive slurry (XRPD): equal quantities of both forms slurried 7 days in ethanol or water; for Stability competition test: crystalline form after slurry: slurried in water or ethanol
Description: Stability competition test: An equal quantity (250 mg) of the crystalline vortioxetine hemihydrobromide form of the present invention prepared in example 4 and the β Form of vortioxetine hydrobromide prepared in preparation example 2 were respectively added to 3 mL of ethanol or water to produce suspensions. No solvate was formed in ethanol or water. The suspensions were slurried for 7 days at room temperature or at 60° C., and then XRPD characterization analyses were performed.

[4] = Dissolution comparison of sustained-release tablets, Example 144; conditions: water, 37° C.
Description: The crystalline form of vortioxetine hemihydrobromide of the present invention and the β Form of vortioxetine hydrobromide prepared in preparation example 2 were tableted by the method of example 141 and then subjected to dissolution comparison. Water was used as the dissolution medium. Parameter setting of the dissolution tester: The temperature was 37° C. The rotate speed of the stirring paddle was 50 r/min. Take 3 ml of the dissolution medium out at 0.5, 1, 2, 6 and 12 hours respectively. Each time after sampling, 3 mL of water was added back to the dissolution medium to supplement the volume. The concentration of the dissolution medium at each time point was determined by HPLC.

[5] = Dissolution of tablets (paddle method, water), Example 140; conditions: 37° C.
Description: The crystalline form of vortioxetine hemihydrobromide of the present invention, the β Form of vortioxetine hydrobromide prepared in preparation example 2 and the β Form of vortioxetine hydrobromide containing 20% of the crystalline form of vortioxetine hemihydrobromide of the present invention were tableted by the method in example 105 and then subjected to phase stability comparison. Dissolution was determined by reference to the dissolution conditions of Benorilate Tablets described in 2010 Chinese Pharmacopoeia. The paddle method was used with the paddle rotation speed at 50 r/min. 900 mL of water was the dissolution medium. The temperature was 37° C. Take 3 mL of the dissolution medium for sampling at 2, 10, 20, 40 and 60 min respectively. Each time after sampling, 3 mL of water was added back to dissolution medium to supplement the volume. The concentration of the dissolution medium at each time point was measured by HPLC, and the dissolution profile was plotted.

[6] = high-temperature conditions, hydrobromide

SMILES: Cc1ccc(Sc2ccccc2N2CCNCC2)c(C)c1 [ethyl acetate solvate of vortioxetine hydrobromide]
- Stability of the crystalline form ([1]; high-humidity conditions): transformed to hydrate
- Stability of the crystalline form [1, 6]: lost ethyl acetate

SMILES: Cc1ccc(Sc2ccccc2N2CCNCC2)c(C)c1 [α Form of vortioxetine hydrobromide, vortioxetine hydrobromide]
- Stability of the crystalline form ([1]; room temperature): transformed to the β Form of vortioxetine hydrobromide

SMILES: Cc1ccc(Sc2ccccc2N2CCNCC2)c(C)c1 [the β Form of vortioxetine hydrobromide, 1-[2-(2,4-dimethylphenylsulfanyl)phenyl]piperazine hydrobromide]
- Hygroscopicity Comparison (weight change) ([2]; listed as the known β Form of vortioxetine hydrobromide, hydrobromide): 0.60%
- Stability Competition Test: crystalline form after competitive slurry (XRPD) ([3]; 60° C., listed as the known β Form of vortioxetine hydrobromide, hydrobromide): completely transformed into the vortioxetine hemihydrobromide crystalline form of the present invention
- Stability Competition Test: crystalline form after competitive slurry (XRPD) ([3]; room temperature, listed as the known β Form of vortioxetine hydrobromide, hydrobromide): completely transformed into the vortioxetine hemihydrobromide crystalline form of the present invention
- Stability competition test: crystalline form after slurry ([3]; temperature not stated at the place, hydrobromide): transformed to the vortioxetine hemihydrobromide crystalline form of the present invention
- Stability competition test: crystalline form after slurry ([3]; temperature not stated at the place, listed as β Form of vortioxetine hydrobromide, hydrobromide): failed to maintain its original crystalline form
- Stability competition test: crystalline form after slurry ([3]; temperature not stated, listed as the known β Form of vortioxetine hydrobromide, hydrobromide): completely transformed to the crystalline vortioxetine hemihydrobromide of the present invention
- Cumulative dissolution ([4]; sustained-release tablets by method of example 141, paddle 50 r/min, 0.5 hours, hydrobromide): 50.0%
- Cumulative dissolution ([4]; sustained-release tablets, 12 hours, hydrobromide): 100.0%

Now from value to molecule:

- Stability of the crystalline form [1, 6]: lost water
SMILES: Cc1ccc(Sc2ccccc2N2CCNCC2)c(C)c1 [hydrate of vortioxetine hydrobromide, vortioxetine hydrobromide]

- Hygroscopicity Comparison (weight change) ([2]; listed as Example 4, hemihydrobromide): 0.28%
- Hygroscopicity Comparison (weight change) ([2]; listed as the vortioxetine hemihydrobromide crystalline form of the present invention, hemihydrobromide): 0.28%
- Stability Competition Test: crystalline form after competitive slurry (XRPD) ([3]; 60° C., listed as the vortioxetine hemihydrobromide crystalline form of the present invention, hemihydrobromide): kept unchanged
- Stability Competition Test: crystalline form after competitive slurry (XRPD) ([3]; room temperature, listed as the vortioxetine hemihydrobromide crystalline form of the present invention, hemihydrobromide): invention kept unchanged”
- Stability competition test: crystalline form after slurry ([3]; temperature not stated, hemihydrobromide): keeping its crystalline form unchanged
- Cumulative dissolution ([4]; sustained-release tablets by method of example 141, paddle 50 r/min, 0.5 hours, hemihydrobromide): 8.1%
- Cumulative dissolution ([5]; tablets by method of example 105, 900 mL water, paddle 50 r/min, 2 min, hemihydrobromide): 8.2%
- Cumulative dissolution ([5]; tablets, water, 60 min): 100.0%
SMILES: Cc1ccc(Sc2ccccc2N2CCNCC2)c(C)c1 [vortioxetine hemihydrobromide]
